Experimental data published in patent publication US20040152759A1, “Combination administration of an indolinone with a chemotherapeutic agent for cell proliferation disorders” (priority 2002, published 2004).
Several values for one entry are separate records, joined by “and”; a condition that tells them apart may be missing. Equal entries are not always repeated. Structures can show the parent of a compound that is named as a salt. Where two headings read alike, the source gives them in different places.

How the values were obtained:
[1] = system: LS174t human colon carcinoma; type: in vivo; settings: Day 23
Protocol: Methods for LS174t Human Colon Cancer Model
(§1) 1×10^5 to 1×10^6 tumor cells were injected into the subcutaneous region of the hind flank of female nu/nu mice (n=10). Tumor growth was monitored twice a week for 2-4 weeks by caliper measurement.
(§2) Tumors were grown to a volume of approximately 100 mm^3 prior to dosing.

NCI-H526 SCLC cells = test: NCI-H526 small cell lung carcinoma subcutaneous xenograft model; type: in vivo, human (xenograft in athymic nu/nu mice); settings: dosing began day 18 after implantation
Protocol: Methods for NCI-H526-Human Small Cell Lung Carcinoma Model
1×10^5 to 1×10^6 tumor cells were injected into the subcutaneous region of the hind flank of female nu/nu mice (n=10). Tumor growth was monitored twice a week for 2-4 weeks by caliper measurements.
NCI-H526 SCLC cells were cultured using standard technique in RPMI 1640 supplemented with 10% fetal bovine serum, 2 mM glutamine, 1 mM sodium pyruvate (Life Technologies Inc., Gaithersburg, Md.), and maintained routinely in a humidified chamber at 37° C. and 5% carbon dioxide.
Cells to be implanted in mice were harvested from cell culture flasks during exponential growth, washed once with sterile phosphate-buffered saline (PBS), counted, and resuspended in PBS to a suitable concentration prior to implantation.
Nine to twelve week old female athymic nu/nu mice purchased from Charles River Laboratories (Wilmington, Mass.) were used.
Mice received subcutaneous injections into the hind flank on Day 0 with 5×10^6 NCI-H526 cells. Subcutaneous tumor-bearing athymic mice (250-300 mm^3 tumor volume) were treated either PO once daily with Compound 1 to the end of the study, intraperitoneally once daily with Cisplatin for the first 5 days, or a combination of the two. […] Tumor growth was measured twice weekly using Vernier calipers for the duration of the treatment. Tumor volumes were calculated as the product of length× width× height.

[2] = system: HT-29 human colon carcinoma; type: in vivo; settings: Compound 1 20 mg/kg PO QD to end, monotherapy, Day 38
Protocol: Methods for HT-29 Human Colon Cancer Model
as §1, §2

[3] = system: MX-1 human breast carcinoma; type: in vivo
Excerpt: Methods for MX1 Human Breast Cancer Model
Mice/Husbandry: Female nu/nu mice (Harlan), 13 weeks of age (at pair-match; Day 1), were fed ad libitum water and an irradiated standard rodent diet. Mice were housed in static microisolators on a 12-hour light cycle. The animal care and use program specifically complies with recommendations of the Guide for Care and Use of Laboratory Animals with respect to restraint, husbandry, surgical procedures, feed and fluid regulation, and veterinary care is AAALAC accredited.
Tumor Implantation: Mice were implanted subcutaneously with 1 mm^3 MX-1 human breast carcinoma fragments in the flank. Tumors were monitored initially twice weekly, and then daily as the neoplasms reached the desired size, approximately 100 mg. […] Estimated tumor weight was calculated using the formula:
Tumor Weight(mg)=w^2×L divided by 2
where w=width and L=length in mm of a MX-1 carcinoma.
as §2
This example evaluates the effects of combined treatment of Compound 1 and Docetaxel on efficacy and toxicity in a human breast cancer model. Tumors were grown to a volume of approximately 100 mm^3 prior to dosing.
This example evaluates the effects of combined treatment of Compound 1 and 5-FU on efficacy and toxicity in a human breast cancer model
as §2
This example evaluates the effects of combined treatment of Compound 1 and Doxorubicin Hydrochloride on efficacy and toxicity in a human breast cancer model.
Tumors were grown to a volume of approximately 100 mm^3 prior to dosing. […] (see FIG. 6).

MDA-MB-435 tumor cells = test: MDA-MB-435 orthotopic human breast carcinoma bone marrow colonization model (survival); type: in vivo, human (xenograft in nu/nu mice); settings: vehicle 46 days
Protocol: Methods for the MDA-MB-435 Human Breast Cancer Model
1×10^5 MDA-MB-435 tumor cells were injected into the left cardiac ventricle of female nu/nu mice (n=10). Mice were monitored for weight loss (>20%) and hind limb paralysis as an indicator of bone marrow colonization.
This example evaluates the effects of combined treatment of Compound 1 and Docetaxel on efficacy and toxicity in a human breast cancer model. Efficacy is indicated by improved survival, which, in turn, is indicated by hind-limb paralysis or weight loss (>20%) due to bone marrow colonization of tumor cells.
Tumor cells were injected into the mammary fat pad of female nu/nu mice and mice were monitored for weight loss (>20%) and hind limb paralysis as an indicator of bone marrow colonization of tumor cells.
Tumor cells were injected into the left cardiac ventricle of female nu/nu mice and mice were monitored for weight loss (>20%) and hind limb paralysis as an indicator of bone marrow colonization

For `CCc1c2c(nc3ccc(OC(=O)N4CCC(N5CCCCC5)CC4)cc13)-c1cc3c(c(=O)n1C2)COC(=O)[C@]3(O)CC` [CPT-11, Irinotecan, reference compound], the “% Inhibition” value ([1]; CPT-11 100 mg/kg IP QWK x 3, monotherapy, 100 mg/kg) was 64% and 63.6%.

For `N.N.[Cl][Pt][Cl]` [Cisplatin, reference compound], the “Day tumor reached 900 mm^3” value (NCI-H526 SCLC cells; Cisplatin 1.5 mg/kg IP QD x 5, monotherapy) was 48 days.

For `CCN(CC)CCNC(=O)c1c(C)[nH]c(/C=C2\C(=O)Nc3ccc(F)cc32)c1C` [Compound 1, 5-(5-Fluoro-2-oxo-1,2-dihydroindol-3-ylidenemethyl)-2,4-dimethyl-1H-pyrrole-3-carboxylic acid(2-diethylamino-ethyl)amide], the “Day tumor reached 900 mm^3” value (NCI-H526 SCLC cells; Compound 1 40 mg/kg PO QD, monotherapy) was 41 days, the “% Inhibition” value [2] was 78% and 77.8% and the “% Inhibition” value ([3]; Biological Example 1, Compound 1 40 mg/kg PO QD to end, monotherapy, Day 20, 40 mg/kg) was 52% and 53%. The “% Inhibition” value ([3]; Biological Example 2, Compound 1 40 mg/kg PO QD to end, monotherapy, Day 17) was 63%, the “% Inhibition” value ([3]; Biological Example 3, Compound 1 40 mg/kg PO QD to end, monotherapy, Day 15) was 57% and the “% Inhibition” value ([3]; Biological Example 4, Compound 1 40 mg/kg PO QD to end, monotherapy, Day 14) was 62%. For the same molecule, the “% Inhibition” value ([1]; Compound 1 40 mg/kg PO QD to end, monotherapy, 40 mg/kg) was 68% and 67.9% and the “Median Survival” value (MDA-MB-435 tumor cells; Compound 1 40 mg/kg PO QD to end, monotherapy) was 52 days.

`O=c1[nH]cc(F)c(=O)[nH]1` [Compound 5-FU, 5-Fluorouracil] was tested, and the “% Inhibition” value ([3]; Biological Example 3, 5-FU 100 mg/kg IV QWK x 3, monotherapy, Day 15) was 45%.

With `CC(=O)O[C@@]12CO[C@@H]1C[C@H](O)[C@@]1(C)C(=O)[C@H](O)C3=C(C)[C@@H](OC(=O)[C@H](O)[C@@H](NC(=O)OC(C)(C)C)c4ccccc4)C[C@@](O)([C@@H](OC(=O)c4ccccc4)[C@H]21)C3(C)C` [Docetaxel] the “% Inhibition” value ([3]; Biological Example 1, Docetaxel 10 mg/kg IV QWK x 3, monotherapy, Day 16) was 60%, the “% Inhibition” value ([3]; Biological Example 1, Docetaxel 15 mg/kg IV QWK x 3, monotherapy, Day 16) was 95% and the “% Inhibition” value ([3]; Biological Example 2, Docetaxel 10 mg/kg IV QWK x 3, monotherapy, Day 14) was 36%. The “% Inhibition” value ([3]; Biological Example 2, Docetaxel 15 mg/kg IV QWK x 3, monotherapy, Day 17) was 90% and the “Median Survival” value (MDA-MB-435 tumor cells; Docetaxel 5 mg/kg IP QWK x 3, monotherapy) was 52 days.

With `COc1cccc2c1C(=O)c1c(O)c3c(c(O)c1C2=O)C[C@@](O)(C(=O)CO)C[C@@H]3O[C@H]1C[C@H](N)[C@H](O)[C@H](C)O1` [Doxorubicin Hydrochloride] the “% Inhibition” value ([3]; Biological Example 4, Doxorubicin Hydrochloride 4 mg/kg IV QOD x 3, monotherapy, Day 14) was 48%.
